The subject of the test is Salmonella Typhi PhoP-promoter GFP reporter, fluorescence, 4 h. Put plainly: Inhibition of PhoP regulon, Salmonella typhi GFP reporter cells, confirmation, 4 h (AID 1850).
As to `C/C(=C\C(=O)OCCCCCCCCC(=O)O)C[C@@H]1OC[C@H](C[C@@H]2O[C@H]2[C@@H](C)[C@H](C)O)[C@@H](O)[C@H]1O`, the IC50 is 13.1 µM.

Consider `C=CC1=C(C(=O)O)N2C(=O)[C@@H](NC(=O)/C(=N/OCC(=O)O)c3csc(N)n3)[C@H]2SC1`, for which the concentration for half-maximal inhibition (IC50) was 17.3 µM.

Consider `O=C(N/N=C/c1ccc([N+](=O)[O-])o1)C(O)c1ccccc1` (centres undefined), for which the IC50 was 35.2 µM.

Regarding `CCOc1ccc(/C=N/NC(=O)c2[nH]ncc2Br)c(O)c1`, the half-inhibitory concentration (IC50) is 138 µM.

Consider `CO[C@@]1(NC(=O)C2SC(=C(C(N)=O)C(=O)O)S2)C(=O)N2C(C(=O)O)=C(CSc3nnnn3C)CS[C@@H]21` (some centres undefined), for which the IC50 is 9.42 µM.

Regarding `O=[N+]([O-])c1cc([N+](=O)[O-])c2cccnc2c1Oc1ccccc1O`, the IC50 was 81.3 µM.

Consider `O=C(N/N=C/c1cc(Cl)ccc1O)c1cccnc1`, for which the 50% inhibitory concentration (IC50) is 37.6 µM.

Turning to `CC1(C)CC(=O)c2c(nc3ccccc3c2N)C1`, the IC50 is 71.6 µM.

Take `CCn1cc(C(=O)O)c(=O)c2cc(F)c(N3CCN(C(=S)NC(=O)c4ccccc4)CC3)cc21`: the IC50 was 18 µM.

`CCCCCCCCCCOC(=O)Cn1c(COc2ccc(C)cc2)[n+](C)c2ccccc21`: the IC50 is 10.5 µM.

As for `COc1c(N2CCN(C(=S)NCc3ccccc3)C(C)C2)c(F)cc2c(=O)c(C(=O)O)cn(C3CC3)c12` (centres undefined), the half-maximal inhibitory concentration (IC50) was 36.1 µM.

Regarding `Oc1c(CN2CCN(c3ccccn3)CC2)cc(Cl)c2cccnc12`, the IC50 is 29.6 µM.

In the case of `Cc1ccc(-n2c(C)cc(C3N=C(N)Nc4nc5ccccc5n43)c2C)c(C)c1` (centres undefined), the IC50 is 20.8 µM.

For `NC1=NC[C@H](Cc2ccccc2)N1CCCCC1CCCCC1`, the IC50 is 22 µM.

With `CCN1c2ccccc2NC2N=C(OC)C(c3ccccc3)C21` (centres undefined), the IC50 was 78.9 µM.

Turning to `CSc1ccc2c(c1)C(N1CCN(C)CC1)Cc1ccccc1S2` (centres undefined), the IC50 was 39.7 µM.

In the case of `O=C(N/N=C/c1c(O)ccc2ccccc12)c1ccc(CO)nc1`, the IC50 is 87.3 µM.

Consider `O/N=C/C1=C(Cl)c2ccccc2CC1`, for which the IC50 is 125 µM.

As to `Cc1ccc(-c2cc(-c3ccc(C)cc3)[n+](-c3ccccc3)c(-c3ccc(C)cc3)c2)cc1`, the IC50 was 35 µM.

Turning to `O=C(CCN1CCOCC1)N/N=C/c1cc(Br)cc(Br)c1O`, the half-inhibitory concentration (IC50) is 31.1 µM.

For `CCCCCCCCC1=NCCc2c1[nH]c1ccccc21`, the IC50 is 63.1 µM.

As to `OC(CNCCc1ccc(Cl)cc1)COc1cc(Cl)ccc1Cl` (centres undefined), the IC50 is 67.9 µM.

On to `CC(Nc1nc(N2CCCC2)nc2ccccc12)c1ccccc1` (centres undefined), for which the IC50 was 69.2 µM.

On to `O=C1C=CC(=O)N1CCCCCCN1C(=O)C=CC1=O`, for which the half-maximal inhibitory concentration (IC50) is 95.1 µM.

Regarding `C=C1c2cccc(O)c2C(O)=C2C(=O)[C@]3(O)C(O)=C(C(N)=O)C(=O)[C@@H](N(C)C)[C@@H]3[C@@H](O)[C@H]12`, the IC50 was 0.56 µM.

Take `CCC(C)NC(=O)c1cn(CC)c2cc(N3CCN(C)CC3)c(F)cc2c1=O` (centres undefined): the IC50 is 20.7 µM.

On to `Cc1ccc(NNS(=O)(=O)c2ccc(C)cc2)cc1`, for which the IC50 is 53.7 µM.

Consider `CN1CCN(C2Cc3cc(F)ccc3Sc3ccc(Cl)cc32)CC1` (centres undefined), for which the IC50 is 62.1 µM.

As to `COc1cc(CNCCc2c[nH]c3ccccc23)ccc1OCc1ccc(F)cc1`, the concentration for half-maximal inhibition (IC50) is 50.9 µM.

For `NC(=O)c1ccc(N=C2C(=O)Nc3ccc([N+](=O)[O-])cc32)cc1`, the IC50 is 34.6 µM.

Turning to `Oc1c(I)cc(Cl)c2cccnc12`, the IC50 is 9.4 µM.

For the compound `COc1ccc(Nc2cc(C)nc(NCc3ccccc3)n2)cc1`, the IC50 is 74.1 µM.

As to `OCCN1CCN(C2CCC(c3ccc(F)cc3)c3ccc(F)cc32)CC1` (centres undefined), the IC50 is 36.6 µM.

In the case of `N/C(=N\OS(=O)(=O)c1ccc2ccccc2c1)c1cccnc1`, the IC50 is 20.7 µM.

On to `OCCN1CCN(Cc2cc(Cl)c3cccnc3c2O)CC1`, for which the IC50 is 75.7 µM.

As to `Cc1nonc1C(=O)N/N=C/c1ccc(O)cc1O`, the IC50 was 33.4 µM.

On to `O=C(NC(CO)C(O)c1ccc([N+](=O)[O-])cc1)C(Cl)Cl` (centres undefined), for which the IC50 was 5.12 µM.

In the case of `COc1ccccc1N1CCN(Cc2ccc(O)c3ncccc23)CC1`, the IC50 is 38.2 µM.

With `C#CCOCCOCCOCCNc1nc(N2CCN(C(=O)CCCCCCCCCCNC(=O)Cn3cc(CCCCCN)nn3)CC2)nc(N2CCN(C(=O)CCCCCCCCCCNC(=O)[C@@H]([C@H](C)O)n3cc(C)nn3)CC2)n1`, the IC50 was 114 µM.

On to `CNCCCC1c2ccccc2C=Cc2ccccc21`, for which the IC50 is 136 µM.

Turning to `O=C(/C=C/c1ccccc1)NC(=S)NNC(=O)c1cnccn1`, the IC50 is 29.7 µM.

For the compound `O=C(CSc1ccccn1)Nc1nonc1[N+](=O)[O-]`, the IC50 is 87.3 µM.

For `O=C(Nc1cccc(C2=NCCN2)c1)Nc1cccc(C2=NCCN2)c1`, the IC50 was 71.9 µM.

As to `O=C(N/N=C/c1cc([N+](=O)[O-])ccc1O)c1cccc2cc[nH]c12`, the IC50 was 36.5 µM.

Turning to `CCCCc1ccc(NC2=NCCCS2)cc1`, the IC50 was 140 µM.

Consider `Cc1cc(N/N=C/c2ccc(F)cc2)nc(NCc2ccccc2)n1`, for which the IC50 is 55.2 µM.

With `NC1=NC[C@H](c2ccccc2)N1CCc1cc(C(F)(F)F)cc(C(F)(F)F)c1`, the IC50 is 75 µM.

Regarding `CCn1cc(C(=O)NCCCN(C)C)c(=O)c2cc(F)c(N3CCN(C)CC3)cc21`, the IC50 is 20.4 µM.

In the case of `O=C(NC1CCCC1)c1ccc(Br)s1`, the concentration for half-maximal inhibition (IC50) is 20.3 µM.

As for `CCN1CCN(C(=O)c2cc3cc(F)ccc3[nH]2)CC1`, the IC50 is 102 µM.

Turning to `CCOc1ccc(-c2cc(C)[n+](CCN(CC)CC)c(-c3ccc(OCC)cc3)c2)cc1`, the IC50 is 37.5 µM.

On to `Cc1ccc(-c2c[n+](Cc3ccc(Cl)c(Cl)c3)c3n2CCC3)cc1`, for which the concentration for half-maximal inhibition (IC50) is 33.3 µM.

As for `Oc1ccc(CN2CCCc3ccccc32)c2cccnc12`, the half-inhibitory concentration (IC50) was 83 µM.

Take `Cc1cc(C2CCCCC2)n(O)c(=O)c1`: the IC50 was 17.2 µM.

For `Oc1ccc(Cl)cc1Cc1cc(Cl)ccc1O`, the IC50 is 33.8 µM.

`Cc1ccc(S(=O)(=O)CCC(=O)c2ccc(O)cc2O)cc1`: the IC50 is 75.7 µM.

For `CCCCN(CCCC)C(=O)c1cn(CC)c2cc(N3CCN(C)CC3)c(F)cc2c1=O`, the IC50 was 4.23 µM.

As to `CCCCOc1ccc(CSC(=N)N)cc1Cl`, the IC50 is 77.7 µM.

`NC1=NC[C@H](Cc2ccc(O)cc2)N1CCC12CC3CC(CC(C3)C1)C2`: the IC50 is 35.8 µM.

As for `Cc1ccc(Nc2cc(C)nn2-c2nc(C)cc(=O)[nH]2)cc1`, the IC50 is 11.9 µM.

Consider `Cc1cc(NC(=O)c2ccccc2)sc1C`, for which the IC50 is 62.3 µM.

`N#C/C(=C\c1ccc[nH]1)C(=O)NC1CC1`: the IC50 is 73.8 µM.

Turning to `CCCCCCCCCCCCCCCC[n+]1ccc(/C=N/O)cc1`, the IC50 is 26.2 µM.

In the case of `OCCCNc1c2ccccc2nc2ccccc12`, the IC50 is 105 µM.

For the compound `CCCNC1=C(C)C(=O)C2=C(C1=O)C(COC(N)=O)[C@]1(OC)C3NC3CN21` (some centres undefined), the IC50 was 15.9 µM.

For `CCn1cc(C(=O)NCCO)c(=O)c2cc(F)c(N3CCN(C)CC3)cc21`, the IC50 was 9.31 µM.

Regarding `CCCCOc1ccc(CN=C(N)N)cc1Cl`, the IC50 is 134 µM.

In the case of `Cc1ccc(Nc2cc(C)c3c(O)cccc3n2)cc1C`, the concentration for half-maximal inhibition (IC50) was 6.64 µM.

Consider `C#CCOCCOCCOCCNc1nc(N2CCN(C(=O)CCCCCCCCCCNC(=O)[C@H](CCCCN)n3cc(C)nn3)CC2)nc(N2CCN(C(=O)CCCCCCCCCCNC(=O)[C@H](CO)n3cc(CCCSC)nn3)CC2)n1`, for which the IC50 is 113 µM.

As to `C=CC1=C(C(=O)O)N2C(=O)[C@@H](NC(=O)/C(=N\O)c3csc(N)n3)[C@H]2SC1` (stereo in doubt), the IC50 is 19.1 µM.

For the compound `CC(C)(C)/C(O)=C/c1nc2cc(Cl)ccc2oc1=O`, the IC50 is 18.2 µM.

With `Cc1cc(C)n(-c2nc(NCCN(C)C)c3c4c(sc3n2)CCCC4)n1`, the IC50 was 45.3 µM.

In the case of `O=C(N/N=C\C=C\c1ccc([N+](=O)[O-])o1)c1cccs1`, the IC50 is 18.7 µM.

Consider `CC(=O)NC(=S)NNC(=O)c1ccc(Br)cc1`, for which the IC50 was 34.9 µM.

On to `CCn1cc(C(=O)O)c(=O)c2cc(F)c(N3CCN(C(=O)Nc4ccccc4)CC3)cc21`, for which the IC50 is 23.3 µM.

On to `Oc1ccccc1C(Nc1nccs1)c1ccc2cccnc2c1O` (centres undefined), for which the 50% inhibitory concentration (IC50) is 20.7 µM.

As for `Cc1ccc(C(C[N+](=O)[O-])n2nc(C)cc2C)cc1` (centres undefined), the IC50 is 75.1 µM.

`CC(NCC(O)COCCC12CC3CC(CC(C3)C1)C2)c1ccccc1` (centres undefined): the IC50 was 31.4 µM.

As for `Oc1ccccc1Nc1nc(NCc2ccco2)c2ccccc2n1`, the IC50 is 34.8 µM.

For the compound `CC(=O)NNC(=S)NC(=O)c1ccccc1`, the IC50 was 20.5 µM.

For the compound `COCCCNC(=S)NNC(=O)c1ccccn1`, the IC50 was 37.4 µM.

With `CC(NCc1ccccc1O)C12CC3CC(CC(C3)C1)C2` (centres undefined), the IC50 was 34.2 µM.

Take `C[C@H]1c2cccc(O)c2C(O)=C2C(=O)[C@]3(O)C(O)=C(C(N)=O)C(=O)[C@@H](N(C)C)[C@@H]3[C@@H](O)[C@@H]21`: the IC50 is 3.98 µM.

For `c1ccc(Nc2nc(NCC3CCCO3)c3ccccc3n2)cc1` (centres undefined), the IC50 was 5 µM.

In the case of `O=c1ccc2cc3c([nH]c4ccc(Br)cc43)oc-2c1O`, the IC50 is 24.1 µM.

Take `CCCc1nnc(NC(=O)c2cn(CC)c3cc(N4CCN(C)CC4)c(F)cc3c2=O)s1`: the IC50 was 66.8 µM.

Regarding `CN1CC=C(/C=C/c2ccc(-c3ccccc3)cc2)CC1`, the IC50 was 60.2 µM.

With `CCn1cc(C(=O)O)c(=O)c2cc(F)c(N3CCN(C(=S)Nc4ccccc4OC)CC3)cc21`, the IC50 is 11.1 µM.

For the compound `Cc1ccccc1C(=O)N/N=C/c1ccc([N+](=O)[O-])s1`, the IC50 was 35.5 µM.

Take `NC[C@@H]1O[C@H](C23CC4CC(CC(C4)C2)C3)Cc2c1ccc(O)c2O`: the IC50 was 50.1 µM.

`CCCCCCCCCCOC(=O)Cn1c(COc2cccc(C)c2)[n+](C)c2ccccc21`: the IC50 is 12.4 µM.

In the case of `CC(=O)c1cc(O)c2ccccc2c1O`, the IC50 was 111 µM.

Regarding `O=C(CNCCC1=CCCCC1)Nc1ccc(N2CCCCCC2)cc1`, the IC50 is 29.6 µM.

Consider `O=C(CSc1nc2ccccc2s1)N/N=C/c1cc([N+](=O)[O-])ccc1O`, for which the IC50 was 72.5 µM.

Consider `O=C(N/N=C/c1ccccn1)c1ccc(Br)o1`, for which the IC50 was 60.7 µM.

In the case of `CCOc1ccc(Nc2c3ccccc3nc3ccccc23)cc1`, the IC50 is 10.2 µM.

On to `CCCCCCCCCCOC(=O)Cn1c(COc2ccccc2C)[n+](C)c2ccccc21`, for which the IC50 is 13.2 µM.

Regarding `Cc1cc(N2CCC(C)CC2)nc(NCc2ccccc2)n1`, the half-inhibitory concentration (IC50) was 40.2 µM.

On to `Cc1ccc(C(=O)N2C(=S)C(c3ccc(F)cc3)=NC23CCN(C)CC3)cc1`, for which the IC50 is 119 µM.

The record behind these values is PubChem BioAssay AID1850 (Southern Research Specialized Biocontainment Screening …, 2009).
